Reference: US11400079B2, “Antibacterial monobactams” (University of Notre Dame du Lac, priority 2017, dated 2022)
Converted amounts (≈) assume the structure as drawn. Where two headings read alike, the source gives them in different places.

What was measured:
Gram-negative bacteria = test: Antibacterial activity against tested Gram-negative strains (summary in words); type: cell-based; details: tested strains of Gram-negative bacteria
Experimental: (§1) General Methods. All solvents and reagents were obtained from commercial sources and used without further purification unless otherwise stated. General methods of purification of compounds involved the use column chromatography with silica gel (230-400 mesh) purchased from Silicycle, Quebec City, Canada. The reactions were monitored by TLC on precoated Merck 60 F254 silica gel plates and visualized using UV light (254 nm).
(§2) Antibacterial assays were performed using iron depleted media as described previously (J. Med. Chem. 2017, 60, 4577).

[1] = tested on: β-lactamase producing strains of A. baumannii; test: Antibacterial activity in combination with tazobactam; type: cell-based, Acinetobacter baumannii; details: combinations with tazobactam
Experimental: as §1, §2

A. baumannii ATCC 17961 = test: MIC antibacterial assay (iron depleted media); type: cell-based; details: Acinetobacter baumannii, ATCC17961; A. baumannii ATCC 17961; MH2 broth with 160 μM bipyridyl added; read-out: MIC
Experimental: as §1, §2

B. dolosa AU0018 = test: MIC antibacterial assay (iron depleted media); type: cell-based; details: Burkholderia dolosa; B. dolosa AU0018; MH2 broth with 160 μM bipyridyl added; read-out: MIC
Experimental: as §1, §2

P. aeruginosa ISR-14-003 = test: MIC antibacterial assay (iron depleted media); type: cell-based; details: Pseudomonas aeruginosa, ISR14003, P. aeruginosa ISR-14-003 (clinical isolate)
Experimental: as §1, §2

Proteus mirabilis X235 = test: MIC antibacterial assay (iron depleted media); type: cell-based; details: Proteus mirabilis X235; MH2 broth with 160 μM bipyridyl added; read-out: MIC
Experimental: as §1, §2

P. aeruginosa ARC 3506 = test: MIC antibacterial assay (iron depleted media); type: cell-based; details: Pseudomonas aeruginosa, ARC3506; P. aeruginosa ARC 3506; compound alone; MH2 broth with 160 μM bipyridyl added; read-out: MIC
Experimental: as §1, §2

[2] = tested on: Salmonella typhimurium ATCC13311; test: MIC antibacterial assay (iron depleted media); type: cell-based; details: Salmonella enterica; Salmonella typhimurium ATCC13311; MH2 broth with 160 μM bipyridyl added; read-out: MIC
Experimental: as §1, §2

E. coli DCO = test: MIC antibacterial assay (iron depleted media); type: cell-based; details: Escherichia coli; E. coli DCO; MH2 broth with 160 μM bipyridyl added; read-out: MIC
Experimental: as §1, §2

[3] = tested on: Enterobacter aerogenes X816; test: MIC antibacterial assay (iron depleted media); type: cell-based; details: Klebsiella aerogenes; Enterobacter aerogenes X816; MH2 broth with 160 μM bipyridyl added; read-out: MIC
Experimental: as §1, §2

S. aureus SG 511 = test: MIC antibacterial assay (iron depleted media); type: cell-based; details: Staphylococcus aureus, SG511; S. aureus SG 511; MH2 broth with 160 μM bipyridyl added; read-out: MIC
Experimental: as §1, §2

P. aeruginosa KW799/wt = test: MIC antibacterial assay (iron depleted media); type: cell-based; details: Pseudomonas aeruginosa; P. aeruginosa KW799/wt; MH2 broth with 160 μM bipyridyl added; read-out: MIC
Experimental: as §1, §2

[4] = tested on: A. baumannii ATCC BAA 1797; test: MIC antibacterial assay (iron depleted media); type: cell-based; details: Acinetobacter baumannii, BAA1797; A. baumannii ATCC BAA 1797; MH2 broth with 160 μM bipyridyl added; read-out: MIC
Experimental: as §1, §2

[5] = tested on: Citrobacter freuendii ATCC 29063; test: MIC antibacterial assay (iron depleted media); type: cell-based; details: ATCC29063; Citrobacter freuendii ATCC 29063; MH2 broth with 160 μM bipyridyl added; read-out: MIC
Experimental: as §1, §2

[6] = tested on: A. baumannii ATCC17978-PNT-165; test: MIC antibacterial assay (iron depleted media); type: cell-based; details: Acinetobacter baumannii
Experimental: as §1, §2

P. aeruginosa ARC 3502 = test: MIC antibacterial assay (iron depleted media); type: cell-based; details: Pseudomonas aeruginosa
Experimental: as §1, §2

P. aeruginosa 01 = test: MIC antibacterial assay (iron depleted media); type: cell-based; details: Pseudomonas aeruginosa; P. aeruginosa 01; MH2 broth with 160 μM bipyridyl added; read-out: MIC
Experimental: as §1, §2

P. aeruginosa ISR-14-004 = test: MIC antibacterial assay (iron depleted media); type: cell-based; details: Pseudomonas aeruginosa, ISR14004, P. aeruginosa ISR-14-004 (clinical isolate)
Experimental: as §1, §2

[7] = tested on: A. baumannii ATCC 17978-PNT-320; test: MIC antibacterial assay (iron depleted media); type: cell-based, Acinetobacter baumannii; details: Acinetobacter baumannii, ATCC17978
Experimental: as §1, §2

[8] = tested on: A. baumannii ATCC BAA 1800; test: MIC antibacterial assay (iron depleted media); type: cell-based, Acinetobacter baumannii; details: Acinetobacter baumannii, BAA1800, MH2 broth with 160 μM bipyridyl added
Experimental: as §1, §2

A.baumannii ISR14-005 = test: MIC antibacterial assay (iron depleted media); type: cell-based, Acinetobacter baumannii; details: Acinetobacter baumannii, ISR14005, A. baumannii ISR14-005 (clinical isolate)
Experimental: as §1, §2

[9] = tested on: strong β-lactamase producing strains of P. aeruginosa (ARC 3502 and ARC 3506); test: Antibacterial activity, alone and in combination with tazobactam; type: cell-based; details: co-administration with tazobactam
Experimental: as §1, §2

[10] = compound alone, MH2 broth with 160 μM bipyridyl added, read-out: MIC
[11] = in combination with tazobactam, read-out: MIC (+tazo)

For CC(C)(O/N=C(\C(=O)NC1C(=O)N(S(=O)(=O)O)C1CSCCNC(=O)CN(CCCCNC(=O)c1cccc(O)c1O)C(=O)c1cccc(O)c1O)c1cnc(N)s1)C(=O)O (racemic) [Compound 42, (E)-2-(((1-(2-Aminothiazol-5-yl)-2-((2-(8-(2,3-dihydroxybenzoyl)-14-(2,3-dihydroxyphenyl)-6,14-dioxo-2-thia-5,8,13-triazatetradecyl)-4-oxo-1-sulfoazetidin-3-yl)amino)-2-oxoethylidene)amino)oxy)-2-methylpropanoic acid], the “antibacterial activity (in words)” value (Gram-negative bacteria) was “remarkably potent”, the “effect of combination with tazobactam on activity (in words)” value [1] was “most enhancement of activity” and the MIC (A. baumannii ATCC 17961) was 0.2 µM (≈ 0.182 µg/mL). The MIC (B. dolosa AU0018) was over 50 µM, the MIC (P. aeruginosa ISR-14-003; [10]) was 1.6 µM (≈ 1.46 µg/mL) and the MIC (P. aeruginosa ISR-14-003; [11]) was 1.6 µM. The MIC (Proteus mirabilis X235) was under 0.025 µM, the MIC (P. aeruginosa ARC 3506) was over 50 µM and the MIC [2] was 0.025 µM (≈ 0.0228 µg/mL). For the same compound, the MIC (E. coli DCO) was under 0.025 µM, the MIC [3] was 0.075 µM (≈ 0.0683 µg/mL) and the MIC (S. aureus SG 511) was over 50 µM. It also gave an MIC (P. aeruginosa KW799/wt) of 0.4 µM (≈ 0.364 µg/mL), an MIC [4] of 0.4 µM (≈ 0.364 µg/mL) and an MIC [5] of 0.05 µM (≈ 0.0455 µg/mL). It also gave an MIC [6] of 0.4 µM (≈ 0.364 µg/mL), an MIC (P. aeruginosa ARC 3502; ARC3502, compound alone, MH2 broth with 160 μM bipyridyl added, read-out: MIC) of over 50 µM and an MIC (P. aeruginosa ARC 3502; ARC3502, in combination with tazobactam, plus some growth at 50, clear between 1.6-50, read-out: MIC (+tazo)) of 1.6 µM. For the same compound, the MIC (P. aeruginosa 01) was 0.4 µM (≈ 0.364 µg/mL), the MIC (P. aeruginosa ISR-14-004; [10]) was 6 µM (≈ 5.47 µg/mL) and the MIC (P. aeruginosa ISR-14-004; [11]) was 3 µM. The MIC [7] was 0.4 µM (≈ 0.364 µg/mL), the MIC [8] was 0.1 to 0.4 µM (≈ 0.0911 to 0.364 µg/mL) and the MIC (A.baumannii ISR14-005; [10]) was over 50 µM. For the same compound, the MIC (A.baumannii ISR14-005; [11]) was 25 µM and the “effect of combination with tazobactam on activity (in words)” value [9] was “most improved activity”.
